# Key:
# [1] = system: Multidrug-resistant Pseudomonas aeruginosa (MDRPA) (CCARM 2095); experiment: Chequerboard assay (synergy with clinically used antibiotics); assay type: cell-based; settings: for FICA (fractional inhibitory concentration of antibiotic): [A]/MICA; for MICA (MIC of antibiotic alone): MDRPA CCARM 2095, 37 °C, 22 h, unit printed only in b27, not in the table; for [A] (MIC of antibiotic in combination): MDRPA CCARM 2095, unit not given
# Experimental: Briefly, 2-fold serial dilutions of each antibiotic and each polymer were prepared and added in a 1:1 volume ratio to the wells of a 96-well plate. An equal volume of bacterial solution (100 μL) at ∼10^6 CFU/mL was then seeded into each well. The plates were incubated in a shaking incubator at 37 °C and 200 rpm and read after 22 h. Bacterial growth was assessed visually or spectrophotometrically via OD600 readings taken by a microplate ELISA reader (Molecular Devices, Sunnyvale, CA, USA). The fractional inhibitory concentration index (FICI) for each drug combination was calculated using the following equation: FICI = FICA + FICB = [A]/MICA + [B]/MICB, where MICA and MICB are the MIC of antibiotic and triazine based monomer (TZP3 or TZP5), respectively, while [A] and [B] are the MIC of antibiotic and triazine based monomer (TZP3 or TZP5) in combination, respectively. FICI of ≤ 0.5 was interpreted as synergy, 0.5 < FICI ≤ 1.0 as additive, 1.0 < FICI ≤ 4.0 as indifferent, and a FICI > 4.0 as antagonism.
# [2] = system: Pseudomonas aeruginosa (KCTC 1637); experiment: Antimicrobial activity, broth microdilution MIC; assay type: cell-based; settings: 2 × 10^6 CFU/mL in 1% peptone, 37 °C, 18–22 h, 100% inhibition of growth, performed three times
# Experimental: (§1) The bacterial strains employed in the experiment were Escherichia coli (KCTC 1682), Pseudomonas aeruginosa (KCTC 1637), Bacillus subtilis (KCTC 3068), Staphylococcus aureus (KCTC 1621), three methicillin-resistant Staphylococcus aureus (CCARM 3089, 3090 and 3095), two multidrug-resistant Pseudomonas aeruginosa (CCARM 2095 and 2109) and vancomycin-resistant Enterococcus faecium (ATCC 51559). The antimicrobial activities of polymers were determined by the broth microdilution method, and the procedures were used as previously reported. Briefly, bacteria grown to mid-logarithmic phase in LB broth were diluted to 2 × 10^6 CFU/mL in 1% peptone and added to serial two-fold dilutions of different polymers ranging from 1 to 64 μg/mL. The plates were incubated in a shaking incubator at 37 °C for 18–22 h. The minimum inhibitory concentration (MIC) was determined by confirming the absence of bacterial growth both visually and spectrophotometrically by OD600 readings taken by a microplate ELISA reader (Molecular Devices, Sunnyvale, CA, USA). All measurements were performed three times.
# [3] = system: Escherichia coli (KCTC 1682); experiment: Antimicrobial activity, broth microdilution MIC; assay type: cell-based; settings: 2 × 10^6 CFU/mL in 1% peptone, 37 °C, 18–22 h, 100% inhibition of growth, performed three times
# Experimental: as §1
# [4] = system: Staphylococcus aureus (KCTC 1621); experiment: Antimicrobial activity, broth microdilution MIC; assay type: cell-based; settings: 2 × 10^6 CFU/mL in 1% peptone, 37 °C, 18–22 h, 100% inhibition of growth, performed three times
# Experimental: as §1
# [5] = system: Bacillus subtilis (KCTC 3068); experiment: Antimicrobial activity, broth microdilution MIC; assay type: cell-based; settings: 2 × 10^6 CFU/mL in 1% peptone, 37 °C, 18–22 h, 100% inhibition of growth, performed three times
# Experimental: as §1
# [6] = system: selected bacterial strains; experiment: Geometric mean of MIC values over the bacterial strains; assay type: cell-based; settings: geometric mean of MIC values from selected six bacterial strains (footnote b)
# Experimental: as §1
# [7] = system: Methicillin-resistant Staphylococcus aureus (MRSA) CCARM 3089; assay type: cell-based; settings: broth microdilution, 37 °C, 18–22 h
# Experimental: as §1
# [8] = system: Methicillin-resistant Staphylococcus aureus (MRSA) CCARM 3090; assay type: cell-based; settings: broth microdilution, 37 °C, 18–22 h
# Experimental: as §1
# [9] = system: Methicillin-resistant Staphylococcus aureus (MRSA) CCARM 3095; assay type: cell-based; settings: broth microdilution, 37 °C, 18–22 h
# Experimental: as §1
# [10] = system: Multidrug-resistant Pseudomonas aeruginosa (MDRPA) CCARM 2095; assay type: cell-based; settings: broth microdilution, 37 °C, 18–22 h
# Experimental: as §1
# [11] = system: Multidrug-resistant Pseudomonas aeruginosa (MDRPA) CCARM 2109; assay type: cell-based; settings: broth microdilution, 37 °C, 18–22 h
# Experimental: as §1
# trypsin = experiment: Protease stability, radial diffusion assay after tryptic digestion; assay type: in vitro ADME; settings: trypsin 0.2 μg/mL in PBS, 37 °C (24 h, 4 h elsewhere in the source), clearance zones against E.coli and S.aureus
# Experimental: The protease stability of triazine based polymers (TZP3 and TZP5) was performed by the radial diffusion assay as described previously. Briefly, a bacteria suspension (2×10^6 CFU/mL in LB) was mixed with 0.7% agarose. This mixture was poured into a 10-cm petri dish, and it dispersed rapidly. […] The reaction was stopped by freezing with liquid nitrogen, after which 10 μL aliquots were placed in each circle paper, put on the agarose plates, and then incubated at 37 °C overnight. The diameters of the bacterial clearance zones surrounding the circle paper were measured for the quantitation of inhibitory activities.
SMILES,MIC Pseudomonas aeruginosa (KCTC 1637) [2],MIC Escherichia coli (KCTC 1682) [3],MIC Staphylococcus aureus (KCTC 1621) [4],MIC Bacillus subtilis (KCTC 3068) [5],GM (geometric mean of MIC values) [6],other results
"O=C(N[C@H](CO)[C@H](O)c1ccc([N+](=O)[O-])cc1)C(Cl)Cl [Chloramphenicol, chloramphenicol, reference compound]",–,–,–,–,–,FICA (fractional inhibitory concentration of antibiotic) ([1]; in combination with TZP3): 0.031; FICA (fractional inhibitory concentration of antibiotic) ([1]; in combination with TZP5): 0.031; MICA (MIC of antibiotic alone) [1]: 512 µM; MICA (MIC of antibiotic alone) ([1]; listed as chloramphenicol): 512−1024 μM; [A] (MIC of antibiotic in combination) ([1]; in combination with TZP3): 16; [A] (MIC of antibiotic in combination) ([1]; in combination with TZP5): 16
"Cc1onc(-c2ccccc2)c1C(=O)N[C@@H]1C(=O)N2[C@@H]1SC(C)(C)[C@@H]2C(=O)O [Oxacillin, oxacillin, reference compound]",–,–,–,–,–,FICA (fractional inhibitory concentration of antibiotic) ([1]; in combination with TZP3): 1.0; FICA (fractional inhibitory concentration of antibiotic) ([1]; in combination with TZP5): 1.0; MICA (MIC of antibiotic alone) [1]: 1024 µM; MICA (MIC of antibiotic alone) ([1]; listed as oxacillin): 512−1024 μM; [A] (MIC of antibiotic in combination) ([1]; in combination with TZP3): 1024; [A] (MIC of antibiotic in combination) ([1]; in combination with TZP5): 1024
NCCCN(CCCN)c1nc(N)nc(NCCNc2nc(Cl)nc(N(CCCN)CCCN)n2)n1 [TZP1],64 [121.7] μg/mL,32 [60.8] μg/mL,32 [60.8] μg/mL,64 [121.7] μg/mL,48.0 [91.3] μg/mL,–
N=C(N)NCCCN(CCCNC(=N)N)c1nc(N)nc(NCCNc2nc(Cl)nc(N(Cc3ccccc3)Cc3ccccc3)n2)n1 [TZP2],8 [11.8] μg/mL,2 [3] μg/mL,2 [3] μg/mL,2 [3] μg/mL,3.5 [5.2] μg/mL,–
NCCCN(CCCN)c1nc(N)nc(NCCNc2nc(NCCNc3nc(Cl)nc(N(Cc4ccccc4)Cc4ccccc4)n3)nc(N(CCCN)CCCN)n2)n1 [TZP4],4 [4.7] μg/mL,2 [2.3] μg/mL,2 [2.3] μg/mL,2 [2.3] μg/mL,2.5 [2.9] μg/mL,–
N=C(N)NCCCN(CCCNC(=N)N)c1nc(Cl)nc(NCCNc2nc(NCCNc3nc(N)nc(N(CCCN)CCCN)n3)nc(N(Cc3ccccc3)Cc3ccccc3)n2)n1 [TZP6],4 [4.2] μg/mL,2 [2.1] μg/mL,2 [2.1] μg/mL,2 [2.1] μg/mL,2.5 [2.7] μg/mL,–
NCCCN(CCCN)c1nc(N)nc(NCCNc2nc(NCCNc3nc(Cl)nc(N(CCCN)CCCN)n3)nc(N(CCCN)CCCN)n2)n1 [TZP7],8 [10.1] μg/mL,16 [20.2] μg/mL,16 [20.2] μg/mL,8 [10.1] μg/mL,12.0 [15.2] μg/mL,–
NCCCN(CCCN)c1nc(NCCNc2nc(N)nc(N(Cc3ccccc3)Cc3ccccc3)n2)nc(NCCNc2nc(Cl)nc(N(Cc3ccccc3)Cc3ccccc3)n2)n1 [TZP8],>64 [>69.3] μg/mL,8 [8.7] μg/mL,8 [8.7] μg/mL,8 [8.7] μg/mL,38.0 [41.1] μg/mL,–
N=C(N)NCCCN(CCCNC(=N)N)c1nc(N)nc(NCCNc2nc(NCCNc3nc(Cl)nc(N(CCCNC(=N)N)CCCNC(=N)N)n3)nc(N(Cc3ccccc3)Cc3ccccc3)n2)n1 [TZP9],8 [7.8] μg/mL,2 [1.9] μg/mL,2 [1.9] μg/mL,2 [1.9] μg/mL,3.5 [3.4] μg/mL,–
N=C(N)NCCCN(CCCNC(=N)N)c1nc(Cl)nc(NCCNc2nc(NCCNc3nc(N)nc(NCCC(c4ccccc4)c4ccccc4)n3)nc(N(CCCNC(=N)N)CCCNC(=N)N)n2)n1 [TZP10],16 [15.4] μg/mL,4 [3.8] μg/mL,4 [3.8] μg/mL,4 [3.8] μg/mL,7.0 [6.7] μg/mL,–
N=C(N)NCCCN(CCCNC(=N)N)c1nc(Cl)nc(NCCNc2nc(NCCNc3nc(NCCNc4nc(N)nc(NCCC(c5ccccc5)c5ccccc5)n4)nc(N(CCCNC(=N)N)CCCNC(=N)N)n3)nc(NCCC(c3ccccc3)c3ccccc3)n2)n1 [TZP11],16 [18.3] μg/mL,8 [9.2] μg/mL,8 [9.2] μg/mL,8 [9.2] μg/mL,10.0 µg/mL,–
NCCCN(CCCN)c1nc(Cl)nc(NCCNc2nc(NCCNc3nc(NCCNc4nc(N)nc(NCCC(c5ccccc5)c5ccccc5)n4)nc(N(CCCN)CCCN)n3)nc(NCCC(c3ccccc3)c3ccccc3)n2)n1 [TZP12],16 [11.5] μg/mL,4 [2.9] μg/mL,4 [2.9] μg/mL,8 [5.8] μg/mL,8.0 [5.8] μg/mL,–
NCCCN(CCCN)c1nc(N)nc(NCCNc2nc(NCCNc3nc(NCCNc4nc(NCCNc5nc(Cl)nc(N(CCCN)CCCN)n5)nc(N(CCCN)CCCN)n4)nc(N(CCCN)CCCN)n3)nc(N(CCCN)CCCN)n2)n1 [TZP13],8 [6.6] μg/mL,8 [6.6] μg/mL,8 [6.6] μg/mL,4 [3.3] μg/mL,7.0 [5.7] μg/mL,–
"CC[C@H](C)[C@H](NC(=O)CN)C(=O)NCC(=O)N[C@@H](C)C(=O)N[C@H](C(=O)N[C@@H](CC(C)C)C(=O)N[C@@H](CCCCN)C(=O)N[C@H](C(=O)N[C@@H](CC(C)C)C(=O)N[C@H](C(=O)N[C@H](C(=O)NCC(=O)N[C@@H](CC(C)C)C(=O)N1CCC[C@H]1C(=O)N[C@@H](C)C(=O)N[C@@H](CC(C)C)C(=O)N[C@H](C(=O)N[C@@H](CO)C(=O)N[C@@H](Cc1c[nH]c2ccccc12)C(=O)N[C@H](C(=O)N[C@@H](CCCCN)C(=O)N[C@@H](CCCNC(=N)N)C(=O)N[C@@H](CCCCN)C(=O)N[C@@H](CCCNC(=N)N)C(=O)N[C@@H](CCC(N)=O)C(=O)N[C@@H](CCC(N)=O)C(N)=O)[C@@H](C)CC)[C@@H](C)CC)[C@@H](C)O)[C@@H](C)O)C(C)C)C(C)C [melittin, reference compound]",–,–,–,–,–,MIC MRSA CCARM 3089 [7]: 8 µg/mL; MIC MRSA CCARM 3090 [8]: 8 µg/mL; MIC MRSA CCARM 3095 [9]: 16 µg/mL; MIC MDRPA CCARM 2095 [10]: 8 µg/mL; MIC MDRPA CCARM 2109 [11]: 8 µg/mL; antibacterial activity after incubation with trypsin (trypsin): lose its antibacterial activity entirely

# From publication PMC6805867, “Amphiphilic Triazine Polymer Derivatives as Antibacterial And Anti-atopic Agents in Mice Model” (Scientific Reports, 2019)
